The record followed here is US5554641A, “Nonpeptides as tachykinin antagonists” (priority 1995, dated 1996).

The target of this assay is T1, human NK3 receptor (Homo sapiens, UniProt P29371).
T1 construct: expressed in transfected cells; host or cells: CHO cell membranes
T1 sequence (P29371 1-465): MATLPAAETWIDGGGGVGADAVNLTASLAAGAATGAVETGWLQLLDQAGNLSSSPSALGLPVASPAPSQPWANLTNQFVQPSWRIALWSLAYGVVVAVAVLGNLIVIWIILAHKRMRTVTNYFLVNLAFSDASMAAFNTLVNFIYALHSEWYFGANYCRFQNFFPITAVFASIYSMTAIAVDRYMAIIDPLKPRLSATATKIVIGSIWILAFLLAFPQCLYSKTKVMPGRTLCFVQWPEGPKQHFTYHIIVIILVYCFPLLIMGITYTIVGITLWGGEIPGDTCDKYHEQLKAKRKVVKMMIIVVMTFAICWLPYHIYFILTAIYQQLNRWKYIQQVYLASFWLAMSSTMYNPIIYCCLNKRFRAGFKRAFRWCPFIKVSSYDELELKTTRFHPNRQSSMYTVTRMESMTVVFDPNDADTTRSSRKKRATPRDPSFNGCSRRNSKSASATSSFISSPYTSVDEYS
Put plainly: In vitro human NK3 receptor binding assay ([125I]-[MePhe7]neurokinin B, CHO cell membranes).
As to `CC(C)[C@H](OC(=O)NC(C)(Cc1cc2ccccc2o1)C(=O)NCCCCCCCNC(N)=O)c1ccccc1` (single isomer, unassigned) [Example 10], the IC50 is 91 nM. Then `CC(C)[C@H](OC(=O)N[C@](C)(Cc1ccccc1)C(=O)NCCCCCCCCC(N)=O)c1ccccc1` [Example 1, Carbamic acid, [2-[(9-amino-9-oxononyl)amino]-1-methyl-2-oxo-1-(phenylmethyl)ethyl]-, 2-methyl-1-phenylpropyl ester, [R-(R*,S*)]-], with 52 nM; and `CC(C)C(OC(=O)N[C@](C)(Cc1ccccc1)C(=O)NCCCCCCCCC(N)=O)c1ccc(Cl)cc1` (stereo partly shown) [Example 2, Carbamic acid, [2-[(9-amino-9-oxononyl)amino]-1-methyl-2-oxo-1-(phenylmethyl)ethyl]-, 1-(4-chlorophenyl)-2-methylpropyl ester], with 258 nM.

Consider `C[C@](Cc1ccccc1)(NC(=O)OC(c1ccccc1)C1CCCC1)C(=O)NCCCCCCCCC(N)=O` (stereo partly shown) [Example 3, [1-(8-Carbamoyl-octylcarbamoyl)-1-methyl-2-phenyl-ethyl]-carbamic acid cyclopentyl-phenyl-methyl ester], for which the IC50 stood at 40 nM.

`CC1(C)CCc2ccccc2C1OC(=O)N[C@](C)(Cc1ccccc1)C(=O)NCCCCCCCCC(N)=O` (stereo partly shown) [Example 4, [1-(8-Carbamoyl-octylcarbamoyl)-1-methyl-2-phenyl-ethyl]-carbamic acid 2,2-dimethyl-1,2,3,4-tetrahydro-naphthalen-1-yl ester] yielded an IC50 of 102 nM. As for `C[C@](Cc1ccccc1)(NC(=O)OC1CCCCc2ccccc21)C(=O)NCCCCCCCCC(N)=O` (stereo partly shown) [Example 5, [1-(8-Carbamoyl-octylcarbamoyl)-1-methyl-2-phenyl-ethyl]-carbamic acid 6,7,8,9-tetrahydro-5H-benzocyclohepten-5-yl ester], the figure is 18 nM; as for `CC1(C)CCCc2ccccc2C1OC(=O)N[C@](C)(Cc1ccccc1)C(=O)NCCCCCCCCC(N)=O` (stereo partly shown) [Example 6, [1-(8-Carbamoyl-octylcarbamoyl)-1-methyl-2-phenyl-ethyl]-carbamic acid 6,6-dimethyl-6,7,8,9-tetrahydro-5H-benzocyclohepten-5-yl ester], 61 nM. `CC(C)C(OC(=O)NC(C)(Cc1cccc(F)c1F)C(=O)NCCCOCCCNC(N)=O)c1ccccc1` (stereo not shown) [Example 11, {2-(2,3-Difluoro-phenyl}-1-methyl-1-[3-{3-ureido-propoxy)-propylcarbamoyl]-ethyl}-carbamic acid 2-methyl-1-phenyl-propyl ester] gave an IC50 of 30 nM.

Consider `CC(C)[C@H](OC(=O)N[C@](C)(Cc1ccccc1)C(=O)N[C@@H](Cc1ccc(O)cc1)C(=O)NCCCCCCO)c1ccccc1` [Example 12, {1-[1-(6-Hydroxy-hexylcarbamoyl)-2-(4-hydroxy-phenyl)-ethylcarbamoyl]-1-methyl-2-phenyl-ethyl}-carbamic acid 2-methyl-1-phenyl-propyl ester], for which the IC50 is 15 nM. As for `CC(C)[C@H](OC(=O)N[C@](C)(Cc1ccccc1)C(=O)N[C@@H](Cc1ccc(O)cc1)C(=O)NCCCCCCCO)c1ccccc1` [Example 13, {1-[1-(7-Hydroxy-heptylcarbamoyl)-2-(4-hydroxy-phenyl)-ethylcarbamoyl]-1-methyl-2-phenyl-ethyl}-carbamic acid 2-methyl-1-phenyl-propyl ester], the figure is 12 nM; as for `CC(C)[C@@H](OC(=O)N[C@](C)(Cc1ccccc1)C(=O)NC(C)(C)c1ccccc1)c1ccccc1` [Example 15, [1-Methyl-1-(1-methyl-1-phenyl-ethylcarbamoyl)-2-phenyl-ethyl]-carbamic acid 2-methyl-1-phenyl-propyl ester], 114 nM. As for `CC(C)[C@@H](OC(=O)N[C@](C)(Cc1ccccc1)C(=O)N[C@@H](CO)c1ccccc1)c1ccccc1` [Example 16, [1-(2-Hydroxy-1-phenyl-ethylcarbamoyl)-1-methyl-2-phenyl-ethyl]-carbamic acid 2-methyl-1-phenyl-propyl ester], the figure is 94 nM; as for `CC(C)C(OC(=O)N[C@](C)(Cc1ccccc1)C(=O)N[C@@H](C)c1ccccc1)c1ccc(F)cc1` (stereo partly shown) [Example 17, [1-Methyl-2-phenyl-1-(1-phenyl-ethylcarbamoyl)-ethyl]-carbamic acid 1-(4-fluoro-phenyl)-2-methyl-propyl ester], 982 nM.
